Laboratory results from ChEMBL document CHEMBL4419169, “Novel Ferroportin Inhibitors” (2018).
Calls of active or inactive are those of the source. The calls are words filed in the database; no cut-off is given here.

Assays:
[1] = test system: Mus musculus; test: Induction of hypoferremia in wild type C57BL/6 mouse assessed as decrease in serum iron levels at 30 mg/kg, po measured after 3 hrs post dose; format: functional; parameters: scale not given: the % may be the effect or the level left
[2] = molecular target: T1, Ferroportin (Mus musculus) (UniProt Q9JHI9); test: Inhibition of ferroportin in mouse J774 cells assessed as induce ferroportin ubiquitination and degradation at […] incubated for 10 mins by immunoprecipitation assay; format: cell-based
T1 sequence (whole entry): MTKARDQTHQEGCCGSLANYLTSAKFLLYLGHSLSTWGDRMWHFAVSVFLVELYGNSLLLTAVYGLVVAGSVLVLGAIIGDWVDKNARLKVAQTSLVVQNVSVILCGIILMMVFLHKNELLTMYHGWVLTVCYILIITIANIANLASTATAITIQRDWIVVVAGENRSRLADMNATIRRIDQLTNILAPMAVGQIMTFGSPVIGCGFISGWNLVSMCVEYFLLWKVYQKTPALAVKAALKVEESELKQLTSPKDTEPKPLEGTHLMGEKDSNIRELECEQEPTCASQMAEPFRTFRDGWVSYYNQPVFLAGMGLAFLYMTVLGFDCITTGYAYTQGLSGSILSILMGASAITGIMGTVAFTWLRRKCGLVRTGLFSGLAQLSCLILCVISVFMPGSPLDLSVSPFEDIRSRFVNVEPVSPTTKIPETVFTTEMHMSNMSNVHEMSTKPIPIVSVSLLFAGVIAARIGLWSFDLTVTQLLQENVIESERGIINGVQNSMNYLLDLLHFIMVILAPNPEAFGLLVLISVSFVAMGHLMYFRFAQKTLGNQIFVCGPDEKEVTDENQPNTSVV

[3] = test system: Mus musculus; test: Prevention of hyperferremia in iron overloaded beta2-microglobulin deficient female mouse assessed as reduction in serum iron level at 60 mg/kg, po measured after 1 hr relative to control; format: functional; parameters: scale not given: the % may be the effect or the level left
[4] = test system: Mus musculus; test: Disease modifying capacity in mouse model of transfusion-independent beta-thalassemia intermedia assessed as decrease in leukocyte counts level at 20 mg/kg, po BID for 46 days relative to control; format: functional; parameters: scale not given: the % may be the effect or the level left
[5] = test system: Mus musculus; test: Disease modifying capacity in mouse model of transfusion-independent beta-thalassemia intermedia assessed as increase in hematocrit levels at 60 mg/kg, po BID for 46 days relative to control; format: functional
[6] = test system: Mus musculus; test: Prevention of iron overload in beta2-microglobulin deficient male mouse assessed as reduction in total liver iron accumulation at 60 mg/kg, po BID pre-dosed followed by exposure to iron-containing water and same regime was repeated for 14 days relative to control; format: functional; parameters: scale not given: the % may be the effect or the level left
[7] = test system: Mus musculus; test: Prevention of iron overload in beta2-microglobulin deficient female mouse assessed as reduction in total liver iron accumulation at 60 mg/kg, po BID pre-dosed followed by exposure to iron-containing water and same regime was repeated for 14 days relative to control; format: functional; parameters: scale not given: the % may be the effect or the level left
[8] = test system: Mus musculus; test: Prevention of iron overload in beta2-microglobulin deficient female mouse assessed as increase in spleen iron accumulation at 60 mg/kg, po BID pre-dosed followed by exposure to iron-containing water and same regime was repeated for 14 days relative to control; format: functional
[9] = test system: Mus musculus; test: Disease modifying capacity in mouse model of transfusion-independent beta-thalassemia intermedia assessed as decrease in [58Fe] spleen iron content at 20 mg/kg, po BID for 46 days relative to control; format: functional; parameters: scale not given: the % may be the effect or the level left
[10] = test system: Mus musculus; test: Disease modifying capacity in mouse model of transfusion-independent beta-thalassemia intermedia assessed as decrease in blood reticulocyte counts at 20 mg/kg, po BID for 46 days relative to control; format: functional; parameters: scale not given: the % may be the effect or the level left
[11] = test system: Mus musculus; test: Disease modifying capacity in mouse model of transfusion-independent beta-thalassemia intermedia assessed as increase in blood erythrocyte counts at 20 mg/kg, po BID for 46 days relative to control; format: functional
[12] = test system: Mus musculus; test: Disease modifying capacity in mouse model of transfusion-independent beta-thalassemia intermedia assessed as increase in hematocrit levels at 20 mg/kg, po BID for 46 days relative to control; format: functional
[13] = test system: Mus musculus; test: Disease modifying capacity in mouse model of transfusion-independent beta-thalassemia intermedia assessed as decrease in blood reticulocyte counts at 60 mg/kg, po BID for 46 days relative to control; format: functional; parameters: scale not given: the % may be the effect or the level left
[14] = test system: Rattus norvegicus; test: Prevention of iron absorption in anemic Wistar rat model of iron absorption assessed as inhibition of increase in serum iron at 10 mg/kg, po pre-dosed 1 hr before ferrous sulfate dosing and measured 3 hours after iron dosing; format: functional
[15] = test system: Mus musculus; test: Induction of hypoferremia in wild type C57BL/6 mouse assessed as decrease in serum iron levels at 100 mg/kg, po measured after 3 hrs post dose; format: functional; parameters: scale not given: the % may be the effect or the level left
[16] = test system: Mus musculus; test: Disease modifying capacity in mouse model of transfusion-independent beta-thalassemia intermedia assessed as increase in blood erythrocyte counts at 60 mg/kg, po BID for 46 days relative to control; format: functional
[17] = test system: Mus musculus; test: Prevention of hyperferremia in iron overloaded beta2-microglobulin deficient male mouse assessed as reduction in serum iron level at 60 mg/kg, po measured after 1 hr relative to control; format: functional; parameters: scale not given: the % may be the effect or the level left
[18] = test system: Mus musculus; test: Induction of hypoferremia in wild type C57BL/6 mouse assessed as decrease in serum iron levels at 10 mg/kg, po measured after 3 hrs post dose; format: functional; parameters: scale not given: the % may be the effect or the level left
[19] = test system: Mus musculus; test: Prevention of iron overload in beta2-microglobulin deficient male mouse assessed as reduction in [58Fe] liver iron accumulation at 60 mg/kg, po BID pre-dosed followed by exposure to iron-containing water and same regime was repeated for 14 days relative to control; format: functional; parameters: scale not given: the % may be the effect or the level left
[20] = test system: Rattus norvegicus; test: Prevention of iron absorption in anemic Wistar rat model of iron absorption assessed as inhibition of increase in serum iron at 30 mg/kg, po pre-dosed 1 hr before ferrous sulfate dosing and measured 3 hours after iron dosing; format: functional
[21] = test system: Rattus norvegicus; test: Prevention of iron absorption in anemic Wistar rat model of iron absorption assessed as inhibition of increase in serum iron at 100 mg/kg, po pre-dosed 1 hr before ferrous sulfate dosing and measured 3 hours after iron dosing; format: functional
[22] = test system: Mus musculus; test: Disease modifying capacity in mouse model of transfusion-independent beta-thalassemia intermedia assessed as prevention of liver [58Fe] loading at 60 mg/kg, po BID for 46 days relative to control; format: functional
[23] = molecular target: T1, Ferroportin (Mus musculus); test: Inhibition of ferroportin in mouse J774 cells assessed as induce ferroportin ubiquitination and degradation at […] incubated for 120 mins by immunoprecipitation assay; format: cell-based
[24] = test system: Mus musculus; test: Prevention of hyperferremia in iron overloaded beta2-microglobulin deficient mouse assessed as reduction in serum iron level at 50 mg/kg, po measured after 3 hrs relative to control; format: functional, organism-based
[25] = test system: Mus musculus; test: Correction of anemia in mouse model of transfusion-independent beta-thalassemia intermedia assessed as hemoglobin levels at 60 mg/kg, po BID for 46 days and measured at day 20 to 48 (reference value: 70 to 80 g/L); format: functional
[26] = test system: Mus musculus; test: Disease modifying capacity in mouse model of transfusion-independent beta-thalassemia intermedia assessed as prevention of liver [58Fe] loading at 20 mg/kg, po BID for 46 days relative to control; format: functional
[27] = test system: Mus musculus; test: Disease modifying capacity in mouse model of transfusion-independent beta-thalassemia intermedia assessed as decrease in [58Fe] spleen iron content at 60 mg/kg, po BID for 46 days relative to control; format: functional; parameters: scale not given: the % may be the effect or the level left
[28] = test system: Mus musculus; test: Disease modifying capacity in mouse model of transfusion-independent beta-thalassemia intermedia assessed as decrease in relative spleen weight at 60 mg/kg, po BID for 46 days relative to control; format: functional; parameters: scale not given: the % may be the effect or the level left
[29] = test system: Mus musculus; test: Prevention of iron overload in beta2-microglobulin deficient male mouse assessed as increase in spleen iron accumulation at 60 mg/kg, po BID pre-dosed followed by exposure to iron-containing water and same regime was repeated for 14 days relative to control; format: functional
[30] = test system: Mus musculus; test: Prevention of iron overload in beta2-microglobulin deficient female mouse assessed as reduction in [58Fe] liver iron accumulation at 60 mg/kg, po BID pre-dosed followed by exposure to iron-containing water and same regime was repeated for 14 days relative to control; format: functional; parameters: scale not given: the % may be the effect or the level left

**Q.** With `Cl.Cl.Cl.O=C(NCc1ncccc1F)c1csc(CCNCc2nc3ccccc3[nH]2)n1` as the compound, how does the Activity [1] read?
**A.** 30%

**Q.** And the inhibition [2]?
**A.** Active

**Q.** What about the Activity [3] of the same compound?
**A.** 32 - 58%

**Q.** What about the Activity [4] of the same compound?
**A.** 0%

**Q.** What about the Activity [5] of the same compound?
**A.** 1%

**Q.** What about the Activity [6] of the same compound?
**A.** 69 - 85%

**Q.** And the Activity [7]?
**A.** 66 - 67%

**Q.** What about the Activity [8] of the same compound?
**A.** 9 - 85%

**Q.** And the Activity [9]?
**A.** 19%

**Q.** And the Activity [10]?
**A.** 19%

**Q.** And the Activity [11]?
**A.** 2%

**Q.** And the Activity [12]?
**A.** 0%

**Q.** And the Activity [13]?
**A.** 43%

**Q.** And the inhibition in vivo at 10 mg/kg [14]?
**A.** 32%

**Q.** What about the Activity [15] of the same compound?
**A.** 50%

**Q.** And the Activity [16]?
**A.** 22%

**Q.** And the Activity [17]?
**A.** 10 - 47%

**Q.** What about the Activity [18] of the same compound?
**A.** 10%

**Q.** And the Activity [19]?
**A.** 81 - 95%

**Q.** And the inhibition in vivo at 30 mg/kg [20]?
**A.** 53%

**Q.** And the inhibition in vivo at 100 mg/kg [21]?
**A.** 97%

**Q.** And the Activity [22]?
**A.** 48%

**Q.** What about the inhibition [23] of the same compound?
**A.** Active

**Q.** What about the Activity [24] of the same compound?
**A.** Active

**Q.** And the Activity [25]?
**A.** 13 g/L

**Q.** And the Activity [26]?
**A.** 20%

**Q.** And the Activity [27]?
**A.** 51%

**Q.** What about the Activity [28] of the same compound?
**A.** 48%

**Q.** And the Activity [29]?
**A.** 24 - 36%

**Q.** What about the Activity [30] of the same compound?
**A.** 67 - 80%
